Read-outs that look alike come from different tables or passages of the source. One block for each compound: values may come before it.
Columns and labels:
LCK tyrosine kinase = target: T1, LCK tyrosine kinase (Homo sapiens, UniProt P06239, C224D/P223M); experiment: LCK spectrophotometric assay; assay type: biochemical; conditions: Table 1; for Ki: read-out: Lck-P Ki
T1 construct: starting from amino acid residue 223 to the end of the protein at residue 509; made in house; host or cells: insect cells
T1 sequence (P06239 223-509 P223M/C224D): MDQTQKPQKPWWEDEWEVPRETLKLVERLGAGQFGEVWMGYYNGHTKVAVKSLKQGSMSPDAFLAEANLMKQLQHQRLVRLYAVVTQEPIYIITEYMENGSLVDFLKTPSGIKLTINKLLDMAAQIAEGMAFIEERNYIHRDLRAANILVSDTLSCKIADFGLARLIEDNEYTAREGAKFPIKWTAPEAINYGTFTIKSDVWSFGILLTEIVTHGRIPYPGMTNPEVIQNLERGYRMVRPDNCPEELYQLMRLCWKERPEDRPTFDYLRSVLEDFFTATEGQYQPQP
Description: The production of ADP from ATP that accompanies phosphoryl transfer was coupled to oxidation of NADH using phosphoenolpyruvate (PEP) and a system having pyruvate kinase (PK) and lactic dehydrogenase (LDH). The oxidation of NADH was monitored by following the decrease of absorbance at 340 nm (e340=6.22 cm^−1 mM^−1) using a Beckman DU 650 spectrophotometer. […] Ki values were determined by measuring enzyme activity in the presence of varying concentrations of test compounds. The data were analyzed using Enzyme Kinetic and Kaleidagraph software.
The spectrophotometric assay was carried out as described above for VEGF-R2, except for the following changes in concentration: LCK=60 nM, MgCl2=0 mM, poly(E4Y1)=20 mM.

human CHK1 (FL-CHK1) = target: T2, human CHK1 (FL-CHK1) (Homo sapiens, UniProt O14757); experiment: CHK1 assay (coupled spectrophotometric, Syntide-2); assay type: biochemical; conditions: read-out: CHK-1 Ki
T2 construct: C-terminally His-tagged full-length human CHK1 (FL-CHK1); made in house; host or cells: baculovirus/insect cell system
T2 sequence (O14757 1-476): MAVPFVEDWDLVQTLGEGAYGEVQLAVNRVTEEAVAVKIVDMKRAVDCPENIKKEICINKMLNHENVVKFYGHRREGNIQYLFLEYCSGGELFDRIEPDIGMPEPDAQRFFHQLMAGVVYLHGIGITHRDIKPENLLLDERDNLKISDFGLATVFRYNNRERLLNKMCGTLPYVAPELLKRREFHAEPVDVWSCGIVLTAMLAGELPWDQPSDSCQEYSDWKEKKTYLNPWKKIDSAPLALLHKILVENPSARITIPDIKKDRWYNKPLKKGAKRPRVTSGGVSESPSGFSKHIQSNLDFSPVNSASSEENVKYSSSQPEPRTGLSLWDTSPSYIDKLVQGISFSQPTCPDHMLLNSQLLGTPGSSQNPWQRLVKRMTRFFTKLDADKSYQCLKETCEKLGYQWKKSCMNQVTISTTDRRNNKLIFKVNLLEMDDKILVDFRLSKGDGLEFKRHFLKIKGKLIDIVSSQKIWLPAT
In short: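 Full-length C-terminally His-tagged human CHK1 expressed in baculovirus/insect cells, used at 10 nM with Syntide-2 substrate. ADP formation coupled via PK/LDH to NADH oxidation, followed as absorbance decrease at 340 nm. Ki from initial rates at varying compound concentrations.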

CDK4/Cyclin D3 complex = CDK4/Cyclin D3 complex (Homo sapiens, UniProt P11802); experiment: CDK4/Cyclin D assay ([32P]ATP, Rb fragment)
Chain of CDK4/Cyclin D3 complex (P11802 whole entry, the tested form may be a part): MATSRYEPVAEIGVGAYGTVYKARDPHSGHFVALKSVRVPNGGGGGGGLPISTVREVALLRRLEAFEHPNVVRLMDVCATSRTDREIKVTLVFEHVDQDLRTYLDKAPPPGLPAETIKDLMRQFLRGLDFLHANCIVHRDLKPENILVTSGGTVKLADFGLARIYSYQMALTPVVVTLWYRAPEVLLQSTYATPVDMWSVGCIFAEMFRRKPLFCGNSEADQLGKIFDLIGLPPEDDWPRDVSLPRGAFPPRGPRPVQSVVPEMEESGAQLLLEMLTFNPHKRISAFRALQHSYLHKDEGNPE
Chain of CDK4/Cyclin D3 complex (P30281 whole entry partner, the tested form may be a part): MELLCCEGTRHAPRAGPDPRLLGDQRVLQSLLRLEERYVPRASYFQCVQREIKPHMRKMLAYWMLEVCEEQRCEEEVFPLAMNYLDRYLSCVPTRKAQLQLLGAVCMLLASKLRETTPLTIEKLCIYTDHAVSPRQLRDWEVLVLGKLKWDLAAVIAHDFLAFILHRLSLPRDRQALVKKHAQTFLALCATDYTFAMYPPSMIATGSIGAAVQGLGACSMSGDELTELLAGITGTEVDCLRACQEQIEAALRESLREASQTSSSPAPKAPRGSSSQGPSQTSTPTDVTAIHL

[1] = target: unphosphorylated VEGF-R2Δ50 (FLVK) (Homo sapiens, UniProt P35968, DEL940-989/E990V); experiment: VEGF-R2 coupled spectrophotometric assay, unphosphorylated VEGF-R2Δ50 (FLVK); conditions: for Ki: FLVK Ki, Table 1
Chain of unphosphorylated VEGF-R2Δ50 (FLVK) (P35968 with tags, fused parts or gaps DEL940-989/E990V limits assumed): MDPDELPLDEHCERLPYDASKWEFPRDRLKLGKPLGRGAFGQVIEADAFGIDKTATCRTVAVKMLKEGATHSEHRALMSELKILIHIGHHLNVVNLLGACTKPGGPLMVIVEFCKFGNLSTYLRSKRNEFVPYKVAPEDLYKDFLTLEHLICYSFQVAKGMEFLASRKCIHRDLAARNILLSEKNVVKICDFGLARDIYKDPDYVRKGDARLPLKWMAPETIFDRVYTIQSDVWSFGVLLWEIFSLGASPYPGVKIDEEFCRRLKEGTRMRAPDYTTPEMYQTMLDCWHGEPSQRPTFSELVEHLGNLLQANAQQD

[2] = target: phosphorylated VEGF-R2Δ50 (FLVK-P) (Homo sapiens, UniProt P35968, DEL940-989/E990V); experiment: VEGF-R2 coupled spectrophotometric assay, phosphorylated VEGF-R2Δ50 (FLVK-P)
Chain of phosphorylated VEGF-R2Δ50 (FLVK-P) (P35968 with tags, fused parts or gaps DEL940-989/E990V limits assumed): as above

[3] = test system: human umbilical vein endothelial cells (HUVEC); experiment: HUVEC proliferation assay (VEGF-stimulated, MTT); assay type: cell-based; conditions: Homo sapiens, HUVEC, + albumin; read-out: HUVEC + albumin IC50
human FGF-R1 = human FGF-R1 (Homo sapiens, UniProt P11362, C488A/C584S/L457V); experiment: FGF-R spectrophotometric assay
Chain of human FGF-R1 (P11362 456-766 L457V/C488A/C584S): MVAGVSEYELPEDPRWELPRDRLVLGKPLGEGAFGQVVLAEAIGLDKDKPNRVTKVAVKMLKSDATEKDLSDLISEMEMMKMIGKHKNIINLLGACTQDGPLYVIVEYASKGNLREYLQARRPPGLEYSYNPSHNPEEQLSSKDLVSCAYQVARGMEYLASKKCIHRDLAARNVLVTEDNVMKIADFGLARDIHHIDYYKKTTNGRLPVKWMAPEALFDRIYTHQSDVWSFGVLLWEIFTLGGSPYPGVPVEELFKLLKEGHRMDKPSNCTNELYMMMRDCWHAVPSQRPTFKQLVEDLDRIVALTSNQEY

CDK2/Cyclin A = CDK2/Cyclin A (Homo sapiens, UniProt P24941); experiment: CDK2/Cyclin A assay ([32P]ATP, Rb fragment); assay type: biochemical; conditions: Table 3
CDK1 = CDK1 (Homo sapiens, UniProt P06493); experiment: CDK1 inhibition; assay type: biochemical; conditions: Table 3
Chain of CDK1 (P06493 whole entry, species assumed): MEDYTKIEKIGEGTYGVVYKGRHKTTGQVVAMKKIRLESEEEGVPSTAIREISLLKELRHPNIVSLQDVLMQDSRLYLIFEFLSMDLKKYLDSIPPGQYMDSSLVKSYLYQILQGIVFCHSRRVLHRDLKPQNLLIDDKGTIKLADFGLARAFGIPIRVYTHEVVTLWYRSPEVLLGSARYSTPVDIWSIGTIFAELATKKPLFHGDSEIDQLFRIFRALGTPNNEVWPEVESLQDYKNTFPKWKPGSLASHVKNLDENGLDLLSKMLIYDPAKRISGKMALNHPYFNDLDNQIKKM
Chain of CDK1 (P14635 whole entry partner, species assumed): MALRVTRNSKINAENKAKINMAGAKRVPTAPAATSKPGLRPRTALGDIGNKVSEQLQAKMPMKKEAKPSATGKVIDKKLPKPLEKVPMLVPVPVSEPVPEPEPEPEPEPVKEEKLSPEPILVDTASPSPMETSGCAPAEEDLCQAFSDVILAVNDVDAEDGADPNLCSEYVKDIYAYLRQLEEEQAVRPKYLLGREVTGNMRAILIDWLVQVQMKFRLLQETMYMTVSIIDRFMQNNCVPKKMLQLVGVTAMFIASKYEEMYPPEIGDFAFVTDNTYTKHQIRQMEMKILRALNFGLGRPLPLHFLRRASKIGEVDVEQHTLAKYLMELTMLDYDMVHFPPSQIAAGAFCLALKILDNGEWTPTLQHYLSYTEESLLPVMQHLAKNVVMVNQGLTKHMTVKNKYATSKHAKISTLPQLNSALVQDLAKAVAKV

[4] = Human liver microsome (HLM) assay; assay type: in vitro ADME; conditions: human liver microsomes, 5 μM test compound
In short: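 Compound metabolism in human liver microsomes measured in triplicate. Samples at 0 and 2 h centrifuged at 14000 g for 10 min and analysed by LC-MS.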

[5] = test system: retinal vasculature (VEGF dependent); experiment: In vivo assay of retinal vascular development in neonatal rats; conditions: P8 model; intravitreal; 5 mg/ml; vehicle PEG/water 50:50
[6] = Determination of inhibitor concentration in mouse plasma after intraperitoneal and oral dosing; assay type: in vivo
In short: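 Mice dosed intraperitoneally or orally; blood taken by ocular bleed at 0.5, 1 and 4 h and by intracardiac puncture at 7 h. Plasma extracted with ethyl acetate after internal standard and NaOH addition, analysed by HPLC or LC-MS against a mouse-plasma standard curve.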

[7] = female, IP, 25 mg/kg, vehicle PEG400:H2O pH 2.3 30:70
[8] = female, IP, 25 mg/kg, vehicle PEG400:H2O pH 2.3 30:70, read-out: Cmin (7 hr conc.)
[9] = female, PO, 50 mg/kg, vehicle PEG400:H2O pH 2.3 30:70
[10] = female, PO, 50 mg/kg, vehicle PEG400:H2O pH 2.3 30:70, read-out: Cmin (7 hr conc.)
[11] = PO, 25 mg/kg, vehicle PEG400:H2O pH 2.3 30:70
[12] = IP, 25 mg/kg, vehicle PEG400:H2O pH 2.3 60:40
[13] = PO, 50 mg/kg, vehicle PEG400:H2O pH 2.3 60:40

SMILES: Oc1cccc(Oc2ccc3c(/C=C/c4ccccc4)n[nH]c3c2)c1 [Example 9(a), 3-(E-styryl)-6-[3-hydroxyphenoxy]-1H-indazole]
- Ki (LCK tyrosine kinase): 162 nM
- Ki (human CHK1 (FL-CHK1); Table 1): 400 nM
- Ki (CDK4/Cyclin D3 complex): 1700 nM
- Ki [1]: 2.4 nM
- Ki [2]: 16 nM

- inhibition at 1 µM (LCK tyrosine kinase; compound concentration 1 μM, read-out: Lck-P % inhibition): 36%
- inhibition at 1 µM (human FGF-R1; read-out: FGF-P % inhibition, Table 1, compound concentration 1 μM): 88%
- Ki [1]: 0.72 nM
- Ki [2]: 4.7 nM
SMILES: O=C(c1cccc(NC(=O)c2ccno2)c1)c1ccc2c(/C=C/c3ccccc3)n[nH]c2c1 [Example 19(l)]
- IC50 [3]: 100 nM

SMILES: C(=C\c1n[nH]c2cc(-c3ccncc3)ccc12)/c1ccccc1 [Example 27(f)]
- Ki (human CHK1 (FL-CHK1); Table 3): 350 nM
- Ki (CDK2/Cyclin A): 3300 nM
- Ki (CDK1): 223 nM
- Ki (CDK4/Cyclin D3 complex): 780 nM

SMILES: Cc1cccc(/C=C/c2n[nH]c3cc(-c4ccncc4)ccc23)c1 [Example 29(b), 6-Pyrid-4-yl-3-E-[2-(3-methylphenyl)ethenyl]-1H-indazole]
- Ki (CDK2/Cyclin A): 3000 nM
- Ki (CDK1): 900 nM
- Ki (CDK4/Cyclin D3 complex): 3900 nM

SMILES: COc1cccc(/C=C/c2n[nH]c3cc(-c4ccncc4)ccc23)c1 [Example 29(e), 6-Pyrid-4-yl-3-E-[2-(3-methoxyphenyl)ethenyl]-1H-indazole]
- Ki (human CHK1 (FL-CHK1); Table 3): 74 nM
- Ki (CDK2/Cyclin A): 1400 nM
- Ki (CDK1): 593 nM
- Ki (CDK4/Cyclin D3 complex): 2000 nM

SMILES: Fc1cccc(/C=C/c2n[nH]c3cc(-c4ccncc4)ccc23)c1 [Example 29(g), 6-Pyrid-4-yl-3-E-[2-(3-fluorophenyl)ethenyl]-1H-indazole]
- Ki (human CHK1 (FL-CHK1); Table 3): 68 nM
- Ki (CDK2/Cyclin A): 1400 nM
- Ki (CDK1): 390 nM
- Ki (CDK4/Cyclin D3 complex): 1100 nM

SMILES: Fc1ccccc1/C=C/c1n[nH]c2cc(-c3ccncc3)ccc12 [Example 29(h), 6-Pyrid-4-yl-3-E-[2-(2-fluorophenyl)ethenyl]-1H-indazole]
- Ki (human CHK1 (FL-CHK1); Table 3): 140 nM
- Ki (CDK2/Cyclin A): 3000 nM
- Ki (CDK1): 1300 nM
- Ki (CDK4/Cyclin D3 complex): 2200 nM

SMILES: C(=C\c1n[nH]c2cc(-c3ccncc3)ccc12)/c1ccc2c(c1)OCO2 [Example 29(r), 6-Pyrid-4-yl-3-E-[2-(3,4-methylenedioxyphenyl)ethenyl]-1H-indazole]
- Ki (human CHK1 (FL-CHK1); Table 3): 72 nM
- Ki (CDK2/Cyclin A): 1300 nM
- Ki (CDK1): 66 nM
- Ki (CDK4/Cyclin D3 complex): 1100 nM

SMILES: CS(=O)(=O)c1ccc(C(=O)Nc2cccc(Oc3ccc4c(/C=C/c5ccccn5)n[nH]c4c3)c2)s1 [Example 31(c), 6-[3-((5-Methylsulfonylthien-2-yl)carboxanido)phenoxy]-3-E-[2-(pyridin-2-yl)ethenyl]-1H-indazole]
- % remain (HLM, 2 h) [4]: 87%
- Initial Evaluation [5]: +/++ var
- Ki [1]: < 0.1 nM

SMILES: CCn1nc(C)cc1C(=O)Nc1cc(C(=O)c2ccc3c(/C=C/c4ccccn4)n[nH]c3c2)ccc1C [Example 41(ee), 6-[3-((1-Ethyl-3-methyl-1H-pyrazol-5-yl)carboxanido)-4-methylbenzoyl]-3-E-[2-(pyridin-2-yl)ethenyl]-1H-indazole]
- % remain (HLM, 2 h) [4]: 47%
- plasma half-life (T1/2) ([6]; IP, 25 mg/kg, vehicle PEG400:H2O pH 2.3 30:70): 4.0 h
- plasma half-life (T1/2) ([6]; PO, 50 mg/kg, vehicle PEG400:H2O pH 2.3 30:70): 3.4 h
- AUC(0-t) [6, 7]: > 28400 ng·h/mL
- concentration at 7 h [6, 8]: 1670 ng/mL
- AUC(0-t) [6, 9]: > 25300 ng·h/mL
- concentration at 7 h [6, 10]: 1210 ng/mL
- Initial Evaluation [5]: +/++ var
- Ki [1]: 0.13 nM

SMILES: Cc1cc(C(=O)Nc2cc(C(=O)c3ccc4c(/C=C/c5ccccn5)n[nH]c4c3)c(C)cc2C)n(C)n1 [Example 41(mm), 6-[2,4-Dimethyl-5-((1,3-dimethyl-1H-pyrazol-5-yl)carboxamido)benzoyl]-3-E-[2-(pyridin-2-yl)ethenyl]-1H-indazole]
- % remain (HLM, 2 h) [4]: 94%
- AUClast [6, 11]: 2261 ng·h/mL
- Cmax [6, 11]: 852 ng/mL
- plasma half-life (T1/2) [6, 11]: 2.5 h
- concentration at 7 h ([6]; female, PO, 25 mg/kg, vehicle PEG400:H2O pH 2.3 30:70, read-out: Cmin (7 hr conc.)): 127 ng/mL
- Initial Evaluation [5]: + (one plus being detectable regression judged to be approximately 25 percent or less)

SMILES: CCCn1nc(C)cc1C(=O)Nc1cccc(C(=O)c2ccc3c(/C=C/c4ccccn4)n[nH]c3c2)c1 [Example 41(r), 6-[3-((1-n-Propyl-3-methyl-1H-pyrazol-5-yl)carboxamido)benzoyl]-3-E-[2-(pyridin-2-yl)ethenyl]-1H-indazole]
- % remain (HLM, 2 h) [4]: 83%
- AUC(0-t) [6, 7]: > 23800 ng·h/mL
- Cmax ([6]; female, IP, 25 mg/kg, vehicle PEG400:H2O pH 2.3 30:70, read-out: Cmax): > 5000 ng/mL
- concentration at 7 h [6, 8]: > 5000 ng/mL
- AUC(0-t) [6, 9]: > 17800 ng·h/mL
- Cmax ([6]; female, PO, 50 mg/kg, vehicle PEG400:H2O pH 2.3 30:70, read-out: Cmax): > 5000 ng/mL
- concentration at 7 h [6, 10]: > 5000 ng/mL
- Initial Evaluation [5]: +/++ var

SMILES: O=C(Nc1cccc(C(=O)c2ccc3c(/C=C/c4ccccn4)n[nH]c3c2)c1)c1ccccc1 [Example 42(a), 6-(3-Benzamidobenzoyl)-3-E-[2-(pyridin-2-yl)ethenyl]-1H-indazole]
- Ki (LCK tyrosine kinase): 53 nM
- % remain (HLM, 2 h) [4]: 92%
- AUClast [6, 12]: 19899 ng·h/mL
- plasma half-life (T1/2) [6, 12]: 5.0 h
- AUClast [6, 13]: 8384 ng·h/mL
- plasma half-life (T1/2) [6, 13]: 2.0 h
- concentration at 7 h ([6]; female, IP, 25 mg/kg, vehicle PEG400:H2O pH 2.3 60:40, read-out: Cmin (7 hr conc.)): 1640 ng/mL
- concentration at 7 h ([6]; female, PO, 50 mg/kg, vehicle PEG400:H2O pH 2.3 60:40, read-out: Cmin (7 hr conc.)): 341 ng/mL
- Ki (human FGF-R1): 65 nM
- Ki [1]: 0.046 nM

- Ki (human CHK1 (FL-CHK1); Table 3): 87 nM
- inhibition at 1 µM (CDK2/Cyclin A; compound concentration 1 μM): 84%
- Ki (CDK1): 146 nM
- inhibition at 1 µM (CDK4/Cyclin D3 complex; read-out: CDK4 % inhibition): 79%
SMILES: C(=N\n1cccc1)/c1n[nH]c2cc(-c3ccncc3)ccc12 [Example 51, 6-Pyrid-4-yl-3-E-(N-(pyrrol-1-yl)iminomethyl)-1H-indazole]

SMILES: C(=C\c1n[nH]c2cc(-c3ccnc4[nH]ncc34)ccc12)/c1ccccc1 [Example 52(a), 6-(7-Azaindazol-4-yl)-3-E-styryl-1H-indazole]
- inhibition at 1 µM (CDK1; compound concentration 1 μM): 39%
- inhibition at 1 µM ([1]; read-out: FLVK % inhibition): 60%

SMILES: O=C(Nc1ccc(O)cc1)c1ccc2c(-c3nc4ccccc4[nH]3)n[nH]c2c1 [Example 53(a), 3-(1H-Benzoidazol-2-yl)-N-(4-hydroxyphenyl)-1H-indazole-6-carboxamide]
- Ki (human CHK1 (FL-CHK1); Table 3): 301 nM
- inhibition at 5 µM (CDK2/Cyclin A; @ 5 μM): 13%
- Ki (CDK1): 24000 nM
- inhibition at 5 µM (CDK4/Cyclin D3 complex; read-out: CDK4 % inhibition): 28%
